The source made the active and inactive calls. The rule behind the calls is not given here.
Tests used:
KCNK2 (Homo sapiens) = experiment: Inhibition of recombinant human KCNK2 transfected in HEK293 cells assessed as reduction in thallium influx at 30 uM incubated for 15 mins in dark by FLIPR assay relative to control
[1] = target: T1, Potassium channel subfamily K member 13 (Mus musculus, UniProt Q8R1P5); experiment: Inhibition of mouse KCNK13 transfected in HEK293 cells assessed as reduction in thallium influx incubated for 15 mins in dark by FLIPR assay; format: cell-based
T1 sequence (Q8R1P5 whole entry): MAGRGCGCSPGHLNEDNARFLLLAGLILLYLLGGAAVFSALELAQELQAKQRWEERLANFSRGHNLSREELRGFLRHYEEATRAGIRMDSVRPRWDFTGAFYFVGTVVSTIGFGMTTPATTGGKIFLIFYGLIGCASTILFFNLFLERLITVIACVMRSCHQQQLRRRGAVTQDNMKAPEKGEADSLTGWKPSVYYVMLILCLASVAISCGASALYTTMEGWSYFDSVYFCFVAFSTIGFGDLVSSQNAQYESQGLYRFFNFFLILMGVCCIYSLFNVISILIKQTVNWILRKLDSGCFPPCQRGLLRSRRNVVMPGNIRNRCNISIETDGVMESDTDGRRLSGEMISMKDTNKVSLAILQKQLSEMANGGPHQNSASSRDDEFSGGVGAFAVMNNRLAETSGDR

[2] = AUC (0 to infinity) in Sprague-Dawley rat at 3 mg/kg, po; format: ADME, organism-based; settings: in vivo
[3] = C0 in Sprague-Dawley rat at 0.5 mg/kg, iv; format: ADME, organism-based; settings: in vivo
[4] = Half life in Sprague-Dawley rat at 3 mg/kg, po; format: ADME, organism-based; settings: in vivo
[5] = Ratio of unbound drug concentration in brain to plasma C57BL/6 mouse at 10 mg/kg, po measured after 4 hrs by LC-MS/MS analysis; format: ADME, organism-based; settings: brain and plasma, read-out: K(p,uu,brain)
[6] = Half life in Beagle dog at 10 mg/kg, po; format: ADME, organism-based, Canis lupus familiaris; settings: in vivo
[7] = target: T2, Potassium channel subfamily K member 13 (Homo sapiens, UniProt Q9HB14); experiment: Inhibition of human KCNK13 transfected in HEK293 cells; format: cell-based
T2 sequence (Q9HB14 whole entry): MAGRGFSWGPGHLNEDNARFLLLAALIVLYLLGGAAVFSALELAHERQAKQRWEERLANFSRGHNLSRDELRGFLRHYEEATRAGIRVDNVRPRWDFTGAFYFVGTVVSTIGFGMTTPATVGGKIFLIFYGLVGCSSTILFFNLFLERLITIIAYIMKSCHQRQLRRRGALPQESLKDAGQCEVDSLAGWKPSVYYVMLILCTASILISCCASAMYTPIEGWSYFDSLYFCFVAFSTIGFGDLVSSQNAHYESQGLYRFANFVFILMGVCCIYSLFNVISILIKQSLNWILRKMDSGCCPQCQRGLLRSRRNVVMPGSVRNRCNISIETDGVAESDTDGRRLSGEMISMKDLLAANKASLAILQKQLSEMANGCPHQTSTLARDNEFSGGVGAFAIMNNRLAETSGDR

[8] = Protein binding in mouse plasma assessed as unbound fraction by equilibrium dialysis; format: ADME, cell-free
[9] = Protein binding in mouse brain assessed as unbound fraction by equilibrium dialysis; format: ADME, tissue-based
[10] = Tmax in Sprague-Dawley rat at 3 mg/kg, po; format: ADME, organism-based; settings: in vivo
Mus musculus = species: Mus musculus; experiment: Effect on IL-1beta release in LPS-induced C57Bl6 mouse hippocampus upto 5 uM treated for 1 hr by ELISA; format: functional, tissue-based
[11] = Half life in Sprague-Dawley rat at 0.5 mg/kg, iv; format: ADME, organism-based; settings: in vivo
[12] = Metabolic stability in rat liver microsomes assessed as intrinsic clearance; format: ADME, Microsome; settings: read-out: CLH
[13] = AUC (0 to infinity) in Cynomolgus monkey at 3 mg/kg, po; format: ADME, organism-based, Macaca fascicularis; settings: in vivo

Imax (KCNK2 (Homo sapiens)): 17.4%
IC50 [1]: 28 nM
AUC(0-inf) [2]: 1240 ng·h/mL
C0 [3]: 304 ng/mL
half-life [4]: 2 h
Kp uu at 4 h [5]: 0.66
half-life [6]: 2.6 h
IC50 [7]: 41 nM
fraction unbound [8]: 0.173
fraction unbound [9]: 0.136
Tmax [10]: 1 h
half-life [11]: 1 h
microsomal CLint [12]: 9.9 µL/min/mg
AUC(0-inf) [13]: 546 ng·h/mL
SMILES: Nc1nonc1-c1nc2cccc(F)c2n1Cc1cccnn1
Activity (Mus musculus): inactive

— ChEMBL document CHEMBL5634193, “Discovery of CVN293, a Brain Permeable KCNK13 (THIK-1) Inhibitor Suitable for Clinical Assessment” (ACS Med Chem Lett, 2024)
